Earlier results as cited in US20110053879A1, “[…] AND AMRUBICIN TO TREAT LUNG CANCER” (priority 2008, published 2011).

Key:
[1] = a specific crystalline form (JP 11-222497 A)
[2] = test system: DNA
[3] = test system: human tumor xenografts; settings: several human tumor xenografts implanted in nude mice
[4] = preclinical studies
[5] = test system: stage III or IV non-SCLC; settings: 45 mg/m^2 on days 1 to 3; chemotherapy-naive patients; intent-to-treat analysis
[6] = test system: extensive-stage SCLC; settings: 45 mg/m^2 on days 1 to 3; chemotherapy-naive patients; intent-to-treat analysis
[7] = phase II trial

For `CC(=O)[C@]1(N)Cc2c(O)c3c(c(O)c2[C@@H](O[C@H]2C[C@H](O)[C@H](O)CO2)C1)C(=O)c1ccccc1C3=O.Cl` [Amrubicin hydrochloride], the heat stability [1] is listed as “excellent in heat stability”.
For `CC(O)[C@]1(N)Cc2c(O)c3c(c(O)c2[C@@H](O[C@H]2C[C@H](O)[C@H](O)CO2)C1)C(=O)c1ccccc1C3=O` (stereo partly shown) [amrubicinol], the “strength as a DNA intercalator relative to doxorubicin (weaker)” value [2] is given as “approximately 1/10”.
In the case of `CC(=O)[C@]1(N)Cc2c(O)c3c(c(O)c2[C@@H](O[C@H]2C[C@H](O)[C@H](O)CO2)C1)C(=O)c1ccccc1C3=O` [amrubicin, (7S,9S)-9-Acetyl-9-amino-7-[(2-deoxy-β-D-erythro-pentapyranosyl)oxy]-7,8,9,10-tetrahydro-6,11-dihydroxy-5,12-nephthacenedione], the “strength as a DNA intercalator relative to doxorubicin (weaker)” value [2] is given as “approximately 1/10”, the “antitumor activity compared with doxorubicin” value [3] is given as “more potent antitumor activity than doxorubicin” and the cardiotoxicity [4] is given as “almost no cardiotoxicity”. The “response rate, stage III or IV non-SCLC” value [5] was 25%, the “response rate, extensive-stage SCLC” value [6] was 79% and the “grade 3 or 4 anemia” value [7] was 23.0%. For the same compound, the “grade 3 or 4 anorexia” value [7] was 4.9%, the “grade 3 or 4 leukopenia” value [7] was 52.5% and the “grade 3 or 4 nausea/vomiting” value [7] was 4.9%. For the same compound, the “grade 3 or 4 neutropenia” value [7] was 72.1% and the “grade 3 or 4 thrombocytopenia” value [7] was 14.8%.
